From ChEMBL document CHEMBL3991601, “The target landscape of clinical kinase drugs” (Science, 2017)
The source made the active and inactive calls. Rule as the data show it, for most assays here: actives have a measured Kd and inactives only a lower limit.

Key:
[1] = target: T1, Glycogen phosphorylase, liver form (Homo sapiens, UniProt P06737); format: subcellular, K-562, COLO 205, SK-N-BE(2) and MV-4-11, Cell lysate; settings: read-out: Kd apparent
T1 sequence (P06737 whole entry): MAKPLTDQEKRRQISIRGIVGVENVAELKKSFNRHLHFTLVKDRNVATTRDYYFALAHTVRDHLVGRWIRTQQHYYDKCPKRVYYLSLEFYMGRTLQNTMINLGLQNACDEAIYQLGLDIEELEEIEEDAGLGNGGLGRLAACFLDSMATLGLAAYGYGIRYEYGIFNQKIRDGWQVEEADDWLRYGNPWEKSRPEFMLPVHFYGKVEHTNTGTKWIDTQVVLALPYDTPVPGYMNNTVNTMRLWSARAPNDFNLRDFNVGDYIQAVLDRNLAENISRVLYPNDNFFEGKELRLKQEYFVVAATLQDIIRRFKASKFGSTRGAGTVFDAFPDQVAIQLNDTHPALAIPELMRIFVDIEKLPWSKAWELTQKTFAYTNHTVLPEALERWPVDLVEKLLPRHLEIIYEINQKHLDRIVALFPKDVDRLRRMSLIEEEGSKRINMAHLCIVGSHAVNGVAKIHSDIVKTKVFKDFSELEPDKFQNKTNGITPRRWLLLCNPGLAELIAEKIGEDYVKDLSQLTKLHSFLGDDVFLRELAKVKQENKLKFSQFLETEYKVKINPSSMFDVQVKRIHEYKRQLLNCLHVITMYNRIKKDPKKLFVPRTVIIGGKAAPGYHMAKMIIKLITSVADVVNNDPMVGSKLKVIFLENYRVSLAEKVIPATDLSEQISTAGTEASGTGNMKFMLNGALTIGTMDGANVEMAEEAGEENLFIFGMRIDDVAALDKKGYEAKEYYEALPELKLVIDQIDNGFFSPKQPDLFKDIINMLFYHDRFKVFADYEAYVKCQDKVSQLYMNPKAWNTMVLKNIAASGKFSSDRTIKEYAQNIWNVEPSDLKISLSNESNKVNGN

[2] = target: T2, Interleukin-1 receptor-associated kinase 4 (Homo sapiens, UniProt Q9NWZ3)
T2 sequence (Q9NWZ3 whole entry): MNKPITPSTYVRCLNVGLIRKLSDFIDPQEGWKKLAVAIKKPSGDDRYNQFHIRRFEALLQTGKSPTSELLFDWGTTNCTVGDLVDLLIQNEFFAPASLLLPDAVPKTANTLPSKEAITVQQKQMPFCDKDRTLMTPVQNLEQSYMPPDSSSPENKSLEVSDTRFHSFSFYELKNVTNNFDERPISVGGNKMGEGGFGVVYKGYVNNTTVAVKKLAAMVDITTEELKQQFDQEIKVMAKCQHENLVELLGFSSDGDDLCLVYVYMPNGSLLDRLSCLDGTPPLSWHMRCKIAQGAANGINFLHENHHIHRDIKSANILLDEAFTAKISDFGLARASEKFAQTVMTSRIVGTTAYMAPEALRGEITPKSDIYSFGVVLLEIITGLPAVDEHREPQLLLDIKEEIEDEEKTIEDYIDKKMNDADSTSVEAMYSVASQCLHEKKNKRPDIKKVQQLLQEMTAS

[3] = target: T3, Serine/threonine-protein kinase LATS1 (Homo sapiens, UniProt O95835)
T3 sequence (O95835 whole entry): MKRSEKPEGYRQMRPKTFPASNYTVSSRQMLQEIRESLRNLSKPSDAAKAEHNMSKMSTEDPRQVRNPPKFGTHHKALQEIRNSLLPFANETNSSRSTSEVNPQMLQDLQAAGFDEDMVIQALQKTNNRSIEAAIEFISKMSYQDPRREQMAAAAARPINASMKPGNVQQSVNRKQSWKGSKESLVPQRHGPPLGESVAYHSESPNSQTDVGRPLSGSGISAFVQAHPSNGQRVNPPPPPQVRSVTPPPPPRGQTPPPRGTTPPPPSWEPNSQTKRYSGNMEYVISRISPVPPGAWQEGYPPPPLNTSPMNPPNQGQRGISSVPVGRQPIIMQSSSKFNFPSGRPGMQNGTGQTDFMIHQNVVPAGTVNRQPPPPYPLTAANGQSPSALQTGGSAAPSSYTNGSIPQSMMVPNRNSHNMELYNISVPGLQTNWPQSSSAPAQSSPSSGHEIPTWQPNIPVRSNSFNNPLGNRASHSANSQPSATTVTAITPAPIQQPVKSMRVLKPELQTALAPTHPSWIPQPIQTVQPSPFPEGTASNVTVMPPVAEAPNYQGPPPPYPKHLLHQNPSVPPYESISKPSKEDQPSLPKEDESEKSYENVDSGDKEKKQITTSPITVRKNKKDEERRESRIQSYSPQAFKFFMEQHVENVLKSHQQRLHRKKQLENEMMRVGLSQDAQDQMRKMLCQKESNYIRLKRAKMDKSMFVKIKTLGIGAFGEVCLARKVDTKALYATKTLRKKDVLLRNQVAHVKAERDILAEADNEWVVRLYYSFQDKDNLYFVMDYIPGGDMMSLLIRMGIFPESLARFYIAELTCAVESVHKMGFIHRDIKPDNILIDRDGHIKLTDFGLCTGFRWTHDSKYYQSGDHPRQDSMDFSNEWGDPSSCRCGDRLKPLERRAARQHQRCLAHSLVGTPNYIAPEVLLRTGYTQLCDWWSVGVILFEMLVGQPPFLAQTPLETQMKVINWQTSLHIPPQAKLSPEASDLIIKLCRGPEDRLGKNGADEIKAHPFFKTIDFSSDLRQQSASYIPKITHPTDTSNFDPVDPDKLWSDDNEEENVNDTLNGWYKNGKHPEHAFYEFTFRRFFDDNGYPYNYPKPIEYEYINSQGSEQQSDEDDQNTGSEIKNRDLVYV

[4] = target: Mitogen-activated protein kinase 11 (Homo sapiens, UniProt Q15759)
[5] = target: Mitogen-activated protein kinase 14 (Homo sapiens, UniProt Q16539)
[6] = target: MAP kinase-activated protein kinase 2 (Homo sapiens, UniProt P49137)
[7] = target: Protein kinase C beta type (Homo sapiens, UniProt P05771)
[8] = target: Wee1-like protein kinase (Homo sapiens, UniProt P30291)
Also: in the data inactive means no Kd found up to 30 µM.

Chain of MAP kinase-activated protein kinase 2 (P49137 whole entry): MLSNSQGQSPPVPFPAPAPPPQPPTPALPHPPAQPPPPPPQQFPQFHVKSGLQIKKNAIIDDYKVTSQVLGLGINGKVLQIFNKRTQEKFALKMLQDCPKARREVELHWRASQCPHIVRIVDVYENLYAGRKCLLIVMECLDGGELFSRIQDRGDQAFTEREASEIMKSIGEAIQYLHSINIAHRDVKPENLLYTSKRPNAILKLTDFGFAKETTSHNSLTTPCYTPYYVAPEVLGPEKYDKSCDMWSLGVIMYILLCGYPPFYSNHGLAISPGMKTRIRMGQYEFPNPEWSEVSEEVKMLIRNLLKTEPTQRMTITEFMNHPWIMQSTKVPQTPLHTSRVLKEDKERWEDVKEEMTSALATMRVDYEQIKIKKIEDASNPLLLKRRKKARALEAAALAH
Chain of Protein kinase C beta type (P05771 whole entry): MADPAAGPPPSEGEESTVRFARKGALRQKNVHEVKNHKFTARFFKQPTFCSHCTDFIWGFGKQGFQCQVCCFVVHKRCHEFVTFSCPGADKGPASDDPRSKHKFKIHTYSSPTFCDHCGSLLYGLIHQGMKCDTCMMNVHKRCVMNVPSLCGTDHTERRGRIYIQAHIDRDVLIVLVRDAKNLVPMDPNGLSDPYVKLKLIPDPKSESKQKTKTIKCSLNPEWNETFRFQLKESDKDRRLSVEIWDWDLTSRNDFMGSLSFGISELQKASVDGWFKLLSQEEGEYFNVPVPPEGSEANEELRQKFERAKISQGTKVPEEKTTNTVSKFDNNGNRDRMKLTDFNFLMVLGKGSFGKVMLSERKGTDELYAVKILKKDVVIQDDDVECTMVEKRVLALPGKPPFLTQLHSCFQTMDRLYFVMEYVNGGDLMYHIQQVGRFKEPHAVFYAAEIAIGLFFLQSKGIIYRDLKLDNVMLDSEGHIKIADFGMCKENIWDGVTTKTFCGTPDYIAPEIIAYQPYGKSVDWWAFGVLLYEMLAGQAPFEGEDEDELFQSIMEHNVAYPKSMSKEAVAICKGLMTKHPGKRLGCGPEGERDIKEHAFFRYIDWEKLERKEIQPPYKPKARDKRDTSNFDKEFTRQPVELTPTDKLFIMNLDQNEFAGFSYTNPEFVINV
Chain of Mitogen-activated protein kinase 11 (Q15759 whole entry): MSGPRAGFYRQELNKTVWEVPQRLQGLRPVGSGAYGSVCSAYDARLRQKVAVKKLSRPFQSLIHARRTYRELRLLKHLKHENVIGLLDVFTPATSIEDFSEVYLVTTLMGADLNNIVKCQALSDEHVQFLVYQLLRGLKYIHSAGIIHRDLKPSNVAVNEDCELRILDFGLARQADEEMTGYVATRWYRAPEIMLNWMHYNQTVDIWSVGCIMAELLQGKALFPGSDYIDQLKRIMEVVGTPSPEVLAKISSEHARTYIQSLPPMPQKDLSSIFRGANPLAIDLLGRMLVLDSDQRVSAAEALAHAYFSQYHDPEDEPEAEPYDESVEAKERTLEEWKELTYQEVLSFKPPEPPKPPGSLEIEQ
Chain of Mitogen-activated protein kinase 14 (Q16539 whole entry): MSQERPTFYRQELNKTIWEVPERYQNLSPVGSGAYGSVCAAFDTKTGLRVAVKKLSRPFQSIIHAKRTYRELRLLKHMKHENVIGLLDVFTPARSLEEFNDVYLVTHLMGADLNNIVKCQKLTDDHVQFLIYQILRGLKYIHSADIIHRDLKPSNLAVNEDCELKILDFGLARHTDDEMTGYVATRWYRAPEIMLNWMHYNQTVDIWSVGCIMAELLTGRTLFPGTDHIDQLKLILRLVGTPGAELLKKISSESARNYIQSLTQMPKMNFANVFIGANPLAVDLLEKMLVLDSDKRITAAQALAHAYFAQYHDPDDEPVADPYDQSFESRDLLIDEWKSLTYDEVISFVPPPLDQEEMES
Chain of Wee1-like protein kinase (P30291 whole entry): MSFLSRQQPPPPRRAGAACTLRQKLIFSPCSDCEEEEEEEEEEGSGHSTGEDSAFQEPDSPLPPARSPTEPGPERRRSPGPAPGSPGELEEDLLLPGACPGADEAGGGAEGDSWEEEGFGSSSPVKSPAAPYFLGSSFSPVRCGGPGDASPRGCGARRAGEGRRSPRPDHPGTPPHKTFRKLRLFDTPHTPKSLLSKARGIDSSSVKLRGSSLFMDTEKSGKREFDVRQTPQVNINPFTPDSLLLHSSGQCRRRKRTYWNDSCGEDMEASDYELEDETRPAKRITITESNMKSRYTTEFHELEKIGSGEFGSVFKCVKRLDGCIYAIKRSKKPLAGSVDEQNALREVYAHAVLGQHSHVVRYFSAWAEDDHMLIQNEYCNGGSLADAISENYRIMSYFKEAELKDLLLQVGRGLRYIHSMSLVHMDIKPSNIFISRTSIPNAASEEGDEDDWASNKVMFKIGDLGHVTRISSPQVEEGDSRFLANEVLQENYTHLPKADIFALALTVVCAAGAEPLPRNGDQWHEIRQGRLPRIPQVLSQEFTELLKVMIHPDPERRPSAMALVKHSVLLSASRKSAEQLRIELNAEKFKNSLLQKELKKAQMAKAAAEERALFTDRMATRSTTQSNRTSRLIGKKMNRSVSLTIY

SMILES	Kd [1]	Kd [2]	Kd [3]	Kd [4]	Kd [5]	Kd [6]	Kd [7]	Kd [8]
Cc1nc2cc(-n3ncc(C(=O)c4cc5ccccc5[nH]4)c3N)ccc2[nH]1 [FGFR INHIBITOR DEBIO 1347]	> 30 µM (inactive)	> 30 µM (inactive)	> 30 µM (inactive)	> 30 µM (inactive)	> 30 µM (inactive)	0.018 µM	> 30 µM (inactive)	> 30 µM (inactive)
O=C(Nc1nc2cccc(-c3ccc(CN4CCS(=O)(=O)CC4)cc3)n2n1)C1CC1 [FILGOTINIB]	> 30 µM (inactive)	> 30 µM (inactive)	> 30 µM (inactive)	> 30 µM (inactive)	> 30 µM (inactive)	> 30 µM (inactive)	> 30 µM (inactive)	> 30 µM (inactive)
Cc1cccc(-c2nn3c(c2-c2ccnc4ccc(C(N)=O)cc24)CCC3)n1 [GALUNISERTIB]	> 30 µM (inactive)	> 30 µM (inactive)	> 30 µM (inactive)	> 30 µM (inactive)	> 30 µM (inactive)	> 30 µM (inactive)	> 30 µM (inactive)	> 30 µM (inactive)
COc1ccc(S(=O)(=O)N(C(C)=O)c2ccccc2/C=C/c2cc[n+]([O-])cc2)cc1 [HMN-214]	> 30 µM (inactive)	> 30 µM (inactive)	> 30 µM (inactive)	> 30 µM (inactive)	> 30 µM (inactive)	> 30 µM (inactive)	> 30 µM (inactive)	> 30 µM (inactive)
CNC(=O)c1cccc2cc(Oc3ccnc4cc(OCC5(N)CC5)c(OC)cc34)ccc12 [LUCITANIB]	> 30 µM (inactive)	> 30 µM (inactive)	> 30 µM (inactive)	> 30 µM (inactive)	> 30 µM (inactive)	> 30 µM (inactive)	> 30 µM (inactive)	> 30 µM (inactive)
CNC(=O)c1nn(C)c2c1C(C)(C)Cc1cnc(Nc3ccc(N4CCN(C)CC4)cc3)nc1-2 [MILCICLIB]	> 30 µM (inactive)	26.1 µM (active)	0.681 µM (active)	> 30 µM (inactive)	> 30 µM (inactive)	> 30 µM (inactive)	> 30 µM (inactive)	0.013 µM (active)
NC1(c2ccc(-c3nc4ccn5c(=O)[nH]nc5c4cc3-c3ccccc3)cc2)CCC1 [MK-2206]	> 30 µM (inactive)	> 30 µM (inactive)	> 30 µM (inactive)	> 30 µM (inactive)	> 30 µM (inactive)	> 30 µM (inactive)	> 30 µM (inactive)	> 30 µM (inactive)
CN(C[C@@H]1COCCO1)S(=O)(=O)Nc1ccc2ccc3ncc(-c4cnn(C)c4)cc3c(=O)c2c1 [MK-2461]	> 30 µM (inactive)	1.47 µM (active)	> 30 µM (inactive)	> 30 µM (inactive)	> 30 µM (inactive)	> 30 µM (inactive)	> 30 µM (inactive)	> 30 µM (inactive)
Cn1cc(-c2cnc3ccc4ccc(CS(=O)(=O)NCc5ccccn5)cc4c(=O)c3c2)cn1 [MK-8033]	> 30 µM (inactive)	> 30 µM (inactive)	> 30 µM (inactive)	> 30 µM (inactive)	> 30 µM (inactive)	> 30 µM (inactive)	> 30 µM (inactive)	> 30 µM (inactive)
FC(F)(F)c1ccc(/C=C/c2nc(COc3ccc(CCCCn4ccnn4)cc3)co2)cc1 [MUBRITINIB]	> 30 µM (inactive)	> 30 µM (inactive)	> 30 µM (inactive)	> 30 µM (inactive)	> 30 µM (inactive)	> 30 µM (inactive)	> 30 µM (inactive)	> 30 µM (inactive)
COc1ncc(-c2ccc3nccc(-c4ccnnc4)c3c2)cc1NS(=O)(=O)c1ccc(F)cc1F [OMIPALISIB]	> 30 µM (inactive)	> 30 µM (inactive)	> 30 µM (inactive)	> 30 µM (inactive)	> 30 µM (inactive)	> 30 µM (inactive)	> 30 µM (inactive)	> 30 µM (inactive)
Cc1nc(Nc2n[nH]c3c2CN(C(=O)N[C@H](CN(C)C)c2ccccc2)C3(C)C)c2sccc2n1 [PF-03758309]	> 30 µM (inactive)	> 30 µM (inactive)	0.157 µM (active)	> 30 µM (inactive)	> 30 µM (inactive)	> 30 µM (inactive)	5.89 µM (active)	2.77 µM (active)
Cc1cnc(NC(=O)Nc2cc(Br)c(C)cc2OC[C@@H]2CNCCO2)cn1 [RABUSERTIB]	> 30 µM (inactive)	> 30 µM (inactive)	> 30 µM (inactive)	> 30 µM (inactive)	> 30 µM (inactive)	> 30 µM (inactive)	> 30 µM (inactive)	> 30 µM (inactive)
CNC(=O)c1cc(Oc2ccc(NC(=O)Nc3cc(C(C)(C)C)nn3-c3ccc4ncccc4c3)c(F)c2)ccn1 [REBASTINIB]	> 30 µM (inactive)	23.2 µM (active)	> 30 µM (inactive)	> 30 µM (inactive)	2.76 µM (active)	4.69 µM (active)	> 30 µM (inactive)	> 30 µM (inactive)
CO[C@H]1C[C@@H]2CC[C@@H](C)[C@@](O)(O2)C(=O)C(=O)N2CCCC[C@H]2C(=O)O[C@H]([C@H](C)C[C@@H]2CC[C@@H](OP(C)(C)=O)[C@H](OC)C2)CC(=O)[C@H](C)/C=C(\C)[C@@H](O)[C@@H](OC)C(=O)[C@H](C)C[C@H](C)/C=C/C=C/C=C/1C [RIDAFOROLIMUS]	> 30 µM (inactive)	> 30 µM (inactive)	> 30 µM (inactive)	> 30 µM (inactive)	> 30 µM (inactive)	> 30 µM (inactive)	> 30 µM (inactive)	> 30 µM (inactive)
N#CC1(c2ccc(NC(=O)c3cccnc3NCc3ccncc3)cc2)CCCC1 [RIVOCERANIB]	> 30 µM (inactive)	> 30 µM (inactive)	> 30 µM (inactive)	> 30 µM (inactive)	> 30 µM (inactive)	> 30 µM (inactive)	> 30 µM (inactive)	> 30 µM (inactive)
